Data from patent US8357811B2, “Crystalline forms of docetaxel and process for preparation thereof” (ScnioPharm Singapore PTE Ltd., priority 2006, dated 2013).

Experiment: Stability of crystalline anhydrous docetaxel and docetaxel trihydrate in solvents (FIG. 2)
Format: physicochemical
Conditions: for stability in co-water solvent: co-water solvent (ACN/water/acetic acid) vs non-water solvent
Text: FIG. 2 illustrates the stability of crystalline anhydrous docetaxel and docetaxel trihydrate.

stability compared with trihydrated form (1883-12-11, 1883-12-21, 2016-109-05) (in acetonitrile, FIG. 2) | stability compared with trihydrated form (see FIG. 2, solvent not stated at this place) | stability in co-water solvent | Structure (SMILES) | stability in acetonitrile compared with acetonitrile/water (9/1) (acetonitrile vs acetonitrile/water (9/1)) | growth of 7-epi-docetaxel on addition of acetic acid (addition of acetic acid) | stability in co-water solvent (listed as Docetaxel) | generation of impurity 7-epi-docetaxel (co-water solvent vs non-water solvent)
more stable | more stable than trihydrated form |  | CC(=O)O[C@@]12CO[C@@H]1C[C@H](O)[C@@]1(C)C(=O)[C@H](O)C3=C(C)[C@@H](OC(=O)[C@H](O)[C@@H](NC(=O)OC(C)(C)C)c4ccccc4)C[C@@](O)([C@@H](OC(=O)c4ccccc4)[C@H]21)C3(C)C [anhydrous form of docetaxel, docetaxel] | more stable in acetonitrile than in acetonitrile/water (9/1) |  |  | 
 |  | less stable in co-water solvent | CC(=O)O[C@@]12CO[C@@H]1C[C@H](O)[C@@]1(C)C(=O)[C@H](O)C3=C(C)[C@@H](OC(=O)[C@H](O)[C@@H](NC(=O)OC(C)(C)C)c4ccccc4)C[C@@](O)([C@@H](OC(=O)c4ccccc4)[C@H]21)C3(C)C [docetaxel] |  | can be suppressed by the addition of acetic acid | more stable in non-water solvent than co-water solvent | generated more rapidly in co-water solvent than in non-water solvent
